According to PubChem BioAssay (NCI):
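Method: 48-hour compound exposure of cells in 96-well plates, five concentrations, linear interpolation of endpoints. At the GI50, growth is halved. The concentration for full growth arrest is given as TGI.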

How the values were obtained:
Experiment in all cases: NCI anticancer screen, dose series, 48 h
[1] = tested on: 786-0 renal
[2] = tested on: A498 renal
[3] = tested on: A549 NSCLC
[4] = tested on: ACHN renal
[5] = tested on: BT-549 breast
[6] = tested on: CAKI-1 renal
[7] = tested on: CCRF-CEM leukemia
[8] = tested on: COLO 205 colon
[9] = tested on: DU-145 prostate
[10] = tested on: EKVX NSCLC
[11] = tested on: HCC-2998 colon
[12] = tested on: HCT-116 colon
[13] = tested on: HCT-15 colon
[14] = tested on: HL-60(TB) leukemia
[15] = tested on: HOP-62 NSCLC
[16] = tested on: HOP-92 NSCLC
[17] = tested on: HS 578T breast
[18] = tested on: HT29 colon
[19] = tested on: IGROV1 ovarian
[20] = tested on: K-562 leukemia
[21] = tested on: KM12 colon
[22] = tested on: LOX IMVI melanoma
[23] = tested on: M14 melanoma
[24] = tested on: MALME-3M melanoma
[25] = tested on: MCF7 breast
[26] = tested on: MDA-MB-231 breast
[27] = tested on: MDA-MB-435
[28] = tested on: MOLT-4 leukemia
[29] = tested on: NCI-H226 lung
[30] = tested on: NCI-H460 lung
[31] = tested on: NCI-H522 lung
[32] = tested on: NCI/ADR-RES ovarian
[33] = tested on: OVCAR-3 ovarian
[34] = tested on: OVCAR-4 ovarian
[35] = tested on: OVCAR-5 ovarian
[36] = tested on: OVCAR-8 ovarian
[37] = tested on: PC-3 prostate
[38] = tested on: RPMI-8226 leukemia
[39] = tested on: RXF 393 renal
[40] = tested on: SF-268 CNS
[41] = tested on: SF-295 CNS
[42] = tested on: SF-539 CNS
[43] = tested on: SK-MEL-2 melanoma
[44] = tested on: SK-MEL-28 melanoma
[45] = tested on: SK-MEL-5 melanoma
[46] = tested on: SK-OV-3 ovarian
[47] = tested on: SN12C renal
[48] = tested on: SNB-19 CNS
[49] = tested on: SNB-75 CNS
[50] = tested on: SW-620 colon
[51] = tested on: T-47D breast
[52] = tested on: TK-10 renal
[53] = tested on: U251 CNS
[54] = tested on: UACC-257 melanoma
[55] = tested on: UACC-62 melanoma
[56] = tested on: UO-31 renal
[57] = tested on: NCI-H23 lung

## COc1cc2c3c(n(CCN4CCOCC4)c(=O)c2cc1OC)-c1ccccc1C3=O
[1]
  GI50: 88.9 µM
  TGI: > 100 µM
[2]
  GI50: 85.7 µM
  TGI: > 100 µM
[3]
  GI50: > 100 µM
  TGI: > 100 µM
[4]
  GI50: 35 µM
  TGI: > 100 µM
[5]
  GI50: > 100 µM
  TGI: > 100 µM
[6]
  GI50: 32.9 µM
  TGI: 72.9 µM
[7]
  GI50: 19.7 µM
  TGI: > 100 µM
[8]
  GI50: > 100 µM
  TGI: > 100 µM
[9]
  GI50: > 100 µM
  TGI: > 100 µM
[10]
  GI50: > 100 µM
  TGI: > 100 µM
[11]
  GI50: 33.8 µM
  TGI: > 100 µM
[12]
  GI50: 59.7 µM
  TGI: > 100 µM
[13]
  GI50: > 100 µM
  TGI: > 100 µM
[14]
  GI50: 35.7 µM
  TGI: > 100 µM
[15]
  GI50: 89.4 µM
  TGI: > 100 µM
[16]
  GI50: > 100 µM
  TGI: > 100 µM
[17]
  GI50: > 100 µM
  TGI: > 100 µM
[18]
  GI50: > 100 µM
  TGI: > 100 µM
[19]
  GI50: 17.2 µM
  TGI: > 100 µM
[20]
  GI50: 99.3 µM
  TGI: > 100 µM
[21]
  GI50: > 100 µM
  TGI: > 100 µM
[22]
  GI50: 45.5 µM
  TGI: > 100 µM
[23]
  GI50: > 100 µM
  TGI: > 100 µM
[24]
  GI50: > 100 µM
  TGI: > 100 µM
[25]
  GI50: 37.8 µM
  TGI: > 100 µM
[26]
  GI50: > 100 µM
  TGI: > 100 µM
[27]
  GI50: > 100 µM
  TGI: > 100 µM
[28]
  GI50: 55.5 µM
  TGI: > 100 µM
[29]
  GI50: > 100 µM
  TGI: > 100 µM
[30]
  GI50: 45.1 µM
  TGI: > 100 µM
[31]
  GI50: 21.2 µM
  TGI: > 100 µM
[32]
  GI50: > 100 µM
  TGI: > 100 µM
[33]
  GI50: > 100 µM
  TGI: > 100 µM
[34]
  GI50: > 100 µM
  TGI: > 100 µM
[35]
  GI50: > 100 µM
  TGI: > 100 µM
[36]
  GI50: > 100 µM
  TGI: > 100 µM
[37]
  GI50: > 100 µM
  TGI: > 100 µM
[38]
  GI50: 81 µM
  TGI: > 100 µM
[39]
  GI50: > 100 µM
  TGI: > 100 µM
[40]
  GI50: > 100 µM
  TGI: > 100 µM
[41]
  GI50: 34.6 µM
  TGI: > 100 µM
[42]
  GI50: > 100 µM
  TGI: > 100 µM
[43]
  GI50: > 100 µM
  TGI: > 100 µM
[44]
  GI50: > 100 µM
  TGI: > 100 µM
[45]
  GI50: > 100 µM
  TGI: > 100 µM
[46]
  GI50: 90.4 µM
  TGI: > 100 µM
[47]
  GI50: > 100 µM
  TGI: > 100 µM
[48]
  GI50: > 100 µM
  TGI: > 100 µM
[49]
  GI50: > 100 µM
  TGI: > 100 µM
[50]
  GI50: 89.2 µM
  TGI: > 100 µM
[51]
  GI50: 27.4 µM
  TGI: 88 µM
[52]
  GI50: > 100 µM
  TGI: > 100 µM
[53]
  GI50: 62.3 µM
  TGI: > 100 µM
[54]
  GI50: > 100 µM
  TGI: > 100 µM
[55]
  GI50: 56.8 µM
  TGI: > 100 µM
[56]
  GI50: 63.3 µM
  TGI: > 100 µM

## COC(=O)c1ccc(NC(=O)c2ccc(NC3=C(Cl)C(=O)N(Cc4ccccc4)C3=O)cc2)cc1
[1]
  GI50: 10.9 µM
  TGI: 22.9 µM
[2]
  GI50: 28.4 µM
  TGI: 58.6 µM
[3]
  GI50: 15.8 µM
  TGI: 29.2 µM
[4]
  GI50: 17.2 µM
  TGI: 31 µM
[5]
  GI50: 16.4 µM
  TGI: 32.1 µM
[6]
  GI50: 2.49 µM
  TGI: 6.4 µM
[8]
  GI50: 37 µM
  TGI: > 100 µM
[9]
  GI50: 17.4 µM
  TGI: 31.2 µM
[10]
  GI50: 45.4 µM
  TGI: > 100 µM
[12]
  GI50: 3.47 µM
  TGI: 11.8 µM
[13]
  GI50: 14.6 µM
  TGI: 27.7 µM
[14]
  GI50: 12.8 µM
  TGI: 25.4 µM
[15]
  GI50: 11.1 µM
  TGI: 23.1 µM
[16]
  GI50: 12.8 µM
  TGI: 25.4 µM
[17]
  GI50: 35.9 µM
  TGI: > 100 µM
[18]
  GI50: 22.5 µM
  TGI: 51.2 µM
[19]
  GI50: 1.53 µM
  TGI: 11.2 µM
[20]
  GI50: 19 µM
  TGI: > 100 µM
[21]
  GI50: 25.7 µM
  TGI: > 100 µM
[22]
  GI50: 13.3 µM
  TGI: 26 µM
[23]
  GI50: 17.1 µM
  TGI: 30.8 µM
[25]
  GI50: 7.16 µM
  TGI: 41.3 µM
[26]
  GI50: 19.7 µM
  TGI: 34.7 µM
[27]
  GI50: 12.3 µM
  TGI: 27 µM
[28]
  GI50: 13 µM
  TGI: 25.6 µM
[29]
  GI50: 22 µM
  TGI: 40.6 µM
[57]
  GI50: 12.1 µM
  TGI: 24.4 µM
[30]
  GI50: 27.3 µM
  TGI: > 100 µM
[31]
  GI50: 13.1 µM
  TGI: 33.1 µM
[32]
  GI50: 14 µM
  TGI: 27 µM
[33]
  GI50: 14 µM
  TGI: 26.9 µM
[34]
  GI50: 27 µM
  TGI: 60.9 µM
[35]
  GI50: 21.5 µM
  TGI: 39 µM
[36]
  GI50: 11 µM
  TGI: 24.7 µM
[37]
  GI50: 13.7 µM
  TGI: 26.6 µM
[38]
  GI50: 3.74 µM
  TGI: 16.3 µM
[39]
  GI50: 22.9 µM
  TGI: 48.3 µM
[40]
  GI50: 22.2 µM
  TGI: 59 µM
[41]
  GI50: 10.2 µM
  TGI: 22 µM
[42]
  GI50: 20.7 µM
  TGI: 39.4 µM
[43]
  GI50: 17.3 µM
  TGI: 42.2 µM
[44]
  GI50: 23.6 µM
  TGI: 47.3 µM
[45]
  GI50: 34.7 µM
  TGI: > 100 µM
[46]
  GI50: 20.7 µM
  TGI: 38.3 µM
[47]
  GI50: 8.13 µM
  TGI: 21.7 µM
[48]
  GI50: 16.5 µM
  TGI: 30.4 µM
[49]
  GI50: 28.8 µM
  TGI: 64.4 µM
[50]
  GI50: 15.1 µM
  TGI: 33 µM
[51]
  GI50: 74.1 µM
  TGI: > 100 µM
[53]
  GI50: 9.63 µM
  TGI: 21.4 µM
[54]
  GI50: 27.3 µM
  TGI: 76.5 µM
[55]
  GI50: 18.7 µM
  TGI: 37.1 µM
[56]
  GI50: 17.9 µM
  TGI: 31.7 µM
